Values quoted from earlier work as cited in patent US5231002A, “Synthetic SCM-active cancer recognition peptides” (priority 1990, dated 1993).

Experiments:
[1] = system: lymphocytes from multiple sclerosis; details: lymphocytes from multiple sclerosis patients
[2] = system: potentially SCM-responding lymphocytes from donors with malignant diseases

CaBP
response in the SCM test (in words) [1]: do not respond
effectiveness as cancer-associated antigen in the SCM test ([2]; known cancer-associated antigens): effective in the SCM test
time until response of lymphocytes is lost after surgical removal of malignancy ([2]; malignancies of breast or colon surgically removed): ≤ 24 h
